{"source": "ChEMBL document CHEMBL1126028", "about": "“Antiandrogenic steroidal sulfonyl heterocycles. Utility of electrostatic complementarity in defining bioisosteric sulfonyl heterocycles” (J Med Chem, 1992)", "key": {"[1]": {"molecular_target": "T1, Androgen receptor (Rattus norvegicus, UniProt P15207)", "T1 sequence (P15207 whole entry)": "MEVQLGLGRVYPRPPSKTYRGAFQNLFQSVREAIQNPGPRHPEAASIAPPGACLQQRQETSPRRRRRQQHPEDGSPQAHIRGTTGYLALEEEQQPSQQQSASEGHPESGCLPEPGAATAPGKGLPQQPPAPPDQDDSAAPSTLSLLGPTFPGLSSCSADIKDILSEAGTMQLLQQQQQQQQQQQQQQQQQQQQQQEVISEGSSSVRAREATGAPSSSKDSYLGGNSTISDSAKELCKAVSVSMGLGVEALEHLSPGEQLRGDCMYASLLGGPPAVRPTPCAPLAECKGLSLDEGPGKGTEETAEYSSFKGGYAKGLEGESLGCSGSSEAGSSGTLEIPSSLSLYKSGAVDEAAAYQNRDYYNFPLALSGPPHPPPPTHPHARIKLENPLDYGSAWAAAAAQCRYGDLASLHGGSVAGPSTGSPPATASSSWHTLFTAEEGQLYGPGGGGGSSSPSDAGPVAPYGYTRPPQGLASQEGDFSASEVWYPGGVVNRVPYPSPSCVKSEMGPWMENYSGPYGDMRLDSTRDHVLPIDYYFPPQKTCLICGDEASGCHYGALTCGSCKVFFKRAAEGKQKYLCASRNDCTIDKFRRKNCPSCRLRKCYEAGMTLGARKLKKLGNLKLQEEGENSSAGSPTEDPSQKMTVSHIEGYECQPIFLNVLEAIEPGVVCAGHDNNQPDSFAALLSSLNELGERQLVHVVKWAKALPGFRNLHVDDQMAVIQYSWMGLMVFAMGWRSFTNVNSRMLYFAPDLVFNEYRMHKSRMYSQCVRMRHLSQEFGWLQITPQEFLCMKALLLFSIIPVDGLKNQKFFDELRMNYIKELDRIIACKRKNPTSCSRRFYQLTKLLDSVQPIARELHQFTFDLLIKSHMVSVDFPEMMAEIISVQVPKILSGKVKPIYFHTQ", "assay": "[…] binding affinity for rat ventral prostate androgen receptor by displacement of [3H]R-1881", "design": "species or system Prostate gland"}, "[2]": {"molecular_target": "T2, Androgen receptor (Rattus norvegicus) (UniProt P15207)", "T2 sequence (whole entry)": "T1 sequence (P15207 whole entry)", "assay": "[…] relative binding affinity (1h/18h) as ratio of binding affinities for R1881 and compound against rat ventral prostate androgen receptor using [3H]- R1881 as radioligand; 0.26/0.04"}, "[3]": {"molecular_target": "T1, Androgen receptor", "description": "In vivo binding affinity for rat ventral prostate androgen receptor by displacement of [3H]R-1881"}, "[4]": {"molecular_target": "T2, Androgen receptor (Rattus norvegicus)", "assay": "[…] relative binding affinity (1h/18h) as ratio of binding affinities for R1881 and compound against rat ventral prostate androgen receptor using [3H]- R1881 as radioligand; <.01/<.01"}, "[5]": {"molecular_target": "T2, Androgen receptor (Rattus norvegicus)", "assay": "[…] relative binding affinity (1h/18h) as ratio of binding affinities for R1881 and compound against rat ventral prostate androgen receptor using [3H]- R1881 as radioligand; 1.2/0.05"}, "[6]": {"molecular_target": "T2, Androgen receptor (Rattus norvegicus)", "assay": "[…] relative binding affinity (1h/18h) as ratio of binding affinities for R1881 and compound against rat ventral prostate androgen receptor using [3H]- R1881 as radioligand; <0.01/<0.01"}}, "data": [{"smiles": "C#C[C@]1(O)CCC2C3CC[C@H]4Cc5nc(S(C)(=O)=O)ncc5C[C@]4(C)C3CC[C@@]21C", "note": "(some centres undefined)", "values": [{"measurement": "Ki", "setting": "[1]", "value": 3, "unit": "µM"}, {"measurement": "relative binding affinity (RBA)", "setting": "[2]", "value": 0.26}]}, {"smiles": "C#C[C@]1(O)CCC2C3CC[C@H]4Cc5sc(S(C)(=O)=O)cc5C[C@]4(C)C3CC[C@@]21C", "note": "(some centres undefined)", "values": [{"measurement": "Ki", "setting": "[3]", "value": "> 29", "unit": "µM"}, {"measurement": "relative binding affinity (RBA)", "setting": "[4]", "value": "< 0.01"}]}, {"smiles": "C#C[C@]1(O)CCC2C3CC[C@H]4Cc5nc(S(C)(=O)=O)sc5C[C@]4(C)C3CC[C@@]21C", "note": "(some centres undefined)", "values": [{"measurement": "Ki", "setting": "[3]", "value": 0.86, "unit": "µM"}]}, {"smiles": "C#C[C@]1(O)CCC2C3CC[C@H]4Cc5oc(S(C)(=O)=O)nc5C[C@]4(C)C3CC[C@@]21C", "note": "(some centres undefined)", "values": [{"measurement": "relative binding affinity (RBA)", "setting": "[5]", "value": 1.2}]}, {"smiles": "C#C[C@]1(O)CCC2C3CC[C@H]4Cc5oc(S(C)(=O)=O)cc5C[C@]4(C)C3CC[C@@]21C", "note": "(some centres undefined)", "values": [{"measurement": "Ki", "setting": "[3]", "value": 0.52, "unit": "µM"}]}, {"smiles": "C#C[C@]1(O)CCC2C3CC[C@H]4Cc5cc(S(C)(=O)=O)oc5C[C@]4(C)C3CC[C@@]21C", "note": "(some centres undefined)", "values": [{"measurement": "relative binding affinity (RBA)", "setting": "[6]", "value": "< 0.01"}, {"measurement": "Ki", "setting": "[3]", "value": "> 29", "unit": "µM"}]}]}
